PMC9321663, “The DevTox Germ Layer Reporter Platform: An Assay Adaptation of the Human Pluripotent Stem Cell Test” (Toxics, 2022)
Like-named read-outs stand apart in the source and are kept apart here.

Key:
[1] = tested on: BRA (mesoderm marker) in RUES2-GLR cells; assay: DevTox GLR-Endo assay: increase in percent BRA-positive cells (AEID 3096, Bra_up); assay type: cell-based, human; details: for HIT−CALL: tcpl plot AEID3096, COFF 0.774; for MAX_MEAN: tcpl plot AEID3096, maximum mean response; for MAX_MED: tcpl plot AEID3096, maximum median response
Method: (§1) The total test chemical incubation period was 48 h.
(§2) (Supplementary Materials).

[2] = tested on: SOX17 (endoderm marker) in RUES2-GLR cells; assay: DevTox GLR-Endo assay: decrease in percent SOX17-positive cells (AEID 3094, Sox17_dn); details: for Emax / AC50 / IC50: Homo sapiens; for effect on SOX17-positive cells (in words): 48 h exposure during directed endoderm differentiation; for % Max Inhibition: maximum inhibition of SOX17-positive cells, reference chemical testing
Method: as §1
(§3) Assay plate controls included non-differentiated pluripotent cells maintained in complete Essential 8 Flex medium (baseline control), endoderm differentiated cells (differentiation control), endoderm differentiated cells treated with DMSO (0.2%) (solvent control), and TGF-ß receptor inhibitor SB431542 (1 µM)-treated cells (developmental toxicant-positive control) (Figure S3). All experiments were completed with a minimum of four biological replicates (n = 4).
as §2

[3] = tested on: SOX17 (endoderm marker) in RUES2-GLR cells; assay: DevTox GLR-Endo assay: increase in percent SOX17-positive cells (AEID 3093, Sox17_up); assay type: cell-based, human; details: for Emax: Homo sapiens; for HIT−CALL: tcpl plot AEID3093, COFF 20.3
Method: as §1, §2

[4] = tested on: SOX2 (ectoderm and pluripotency marker) in RUES2-GLR cells; assay: DevTox GLR-Endo assay: increase in percent SOX2-positive cells (AEID 3095, Sox2_up); details: for MAX_MEAN: tcpl plot AEID3095, maximum mean response; for MAX_MED: tcpl plot AEID3095, maximum median response; for AC50 / Emax: Homo sapiens; for AC50: read-out: ga (winning model); for Emax: read-out: tp (winning model);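 for all read-outs here: cells exposed to test chemicals for 48 h in total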
RUES2-GLR cells = assay: DevTox GLR-Endo assay: decrease in total cell count, cytotoxicity (AEID 3098, CellCount_dn); details: for Emax: Homo sapiens, read-out: Cell Count % Max Inhibition; for effect on cell counts (in words): reference chemical testing, increasing concentrations
Method: as §1, §3, §2

[5] = cited from earlier work; for Development Toxicant Classification: Table S2; for Classification: developmental toxicant classification (Teratogen / Non-Teratogen) of reference and training chemicals, ref DOI per chemical: 10.1093/toxsci/kft239, 10.1093/toxsci/kfaa014, 10.1177/026119290203000204, 10.1038/s41598-020-59542-x; for DT Class.: developmental toxicant classification, chemicals common with quickPredict; for Developmental Toxicant Classification: reference chemicals
in vitro = details: human
Method: as §1, §3, §2

H9 human ESC line = details: cited from earlier work
[6] = read-out: DevTox % Max Inhibition
[7] = read-out: ga (winning model), tcpl plot AEID3094, gain parameter of winning curve fit (log concentration, µM axis), hit calls only (converted)
[8] = Table S2, SOX17-positive cells, cutoff 3*bmad
[9] = Table S2, percent SOX17-positive cells, 48 h exposure
[10] = tcpl plot AEID3093, maximum mean response, read-out: MAX_MEAN
[11] = tcpl plot AEID3093, maximum median response, read-out: MAX_MED
[12] = DevTox GLR-Endo prediction against developmental toxicant classification
[13] = read-out: maximum observed effect level class (% max inhibition)

Compound	HIT−CALL [1]	MAX_MEAN [1] [Percent Activity]	MAX_MED [1] [Percent Activity]	Emax [2, 6] [%]	Emax ([2]; read-out: MAX_MEAN) [%]	Emax ([2]; read-out: MAX_MED) [%]	AC50 [2, 7] [µM]	Emax ([2]; read-out: tp (winning model)) [%]	Hit Call [2, 8]	DevTox ACC [2, 9] [µM]	HIT−CALL ([2]; tcpl plot AEID3094, COFF 20.3)	Emax [3, 10] [%]	Emax [3, 11] [%]	HIT−CALL [3]	MAX_MEAN [4] [Percent Activity]	MAX_MED [4] [Percent Activity]	Emax (RUES2-GLR cells) [%]	Development Toxicant Classification [5]	Classification [5]	DT Class. [5]	further results
O=C1NC(=O)C(c2ccccc2)(c2ccccc2)N1	0	0.943	0.909	21	19.1	21	191	32.6	Positive	201.562	1	11.2	11.7	0	0.502	0.532	22.6	Positive	Teratogen	Pos	DevTox-GLR Endo ACC ([2]; activity concentration at cutoff, SOX17-positive cells, 48 h exposure): 201.56 µM; Cell Count ACC (RUES2-GLR cells; human, 48 h): 191.824 µM; DevTox-GLR Endo CC (RUES2-GLR cells; human, 48 h): 191.82 µM
OB(O)O [Boric acid]	0	0.818	0.83						Negative	>200	0			0	0.45	0.453			Teratogen	Pos	hit call designation (in words) [2, 12]: false negative; DevTox % Max Inhibition ([2]; Table S2, percent SOX17-positive cells relative to DMSO): 16.7249%; maximum observed effect level class (% max inhibition) ([2]; stratification of training set chemicals): weak (weak (0–20% max inhibition)); MAX_MEAN ([2]; tcpl plot AEID3094, maximum mean response): 15.7 Percent Activity; MAX_MED ([2]; tcpl plot AEID3094, maximum median response): 16.7 Percent Activity; MAX_MEAN ([3]; tcpl plot AEID3093, maximum mean response): 7.53 Percent Activity; MAX_MED ([3]; tcpl plot AEID3093, maximum median response): 7.06 Percent Activity; Cell Count % Max Inhibition (RUES2-GLR cells; Table S2, cell count relative to DMSO): 12.3286%
CC1=C2C[C@H]3[C@@H](CC=C4C[C@@H](O)CC[C@@]43C)[C@@H]2CC[C@]12O[C@@H]1C[C@H](C)CN[C@H]1[C@H]2C [Cyclopamine]	1	4.76	1.9	22.7	34.8	22.7			Negative	>200	0			0	5.31	0.885	9.2	Positive	Teratogen	Pos	hit call designation (in words) [2, 12]: borderline calls; Emax [2, 13]: 20 to 80%; Emax ([3]; read-out: MAX_MEAN): 3.34%; Emax ([3]; read-out: MAX_MED): 3.36%; HIT−CALL [4]: 0; Cell Count ACC (RUES2-GLR cells; Table S2, 48 h exposure): >200 µM
O=P1(N(CCCl)CCCl)NCCCO1 (stereo not shown) [Cyclophosphamide]	0	0.871	0.897	7.49	6.4	7.49								0	0.952	0.491	25.6	Positive	Teratogen	Pos	DevTox ACC [2]: >200 µM; HIT−CALL [2]: 0; Hit Call [2]: Negative; hit call designation (in words) [2]: false negative; Emax [2, 13]: 0 to 20%; Emax ([3]; read-out: MAX_MEAN): 8.69%; Emax ([3]; read-out: MAX_MED): 8.98%; Cell Count ACC (RUES2-GLR cells; human): 100.193 µM; DevTox-GLR Endo CC (RUES2-GLR cells; human): 100.19 µM; effect on cell count (in words) (RUES2-GLR cells; human): significant cell loss that did not impact SOX17-positive populations
COc1cc2ncnc(Nc3ccc(F)c(Cl)c3)c2cc1OCCCN1CCOCC1 [Gefitinib]					102	101	5.75	101		4.584		10.5	7.83	0	5.99	4.85					AC50 ([2]; 48 h, read-out: DevTox-GLR Endo AC50 (µM), SOX17 half-maximal activity concentration, 48 h exposure): 5.75 µM; AC50 [4]: 6.35 µM; Emax [4]: 3.17%; Cell Count ACC (RUES2-GLR cells; human, 48 h): 5.08 µM; CC50 at 48 h (in vitro): 6.6 µM; hPST TC50 (H9 human ESC line; cytotoxicity half-maximal concentration): 10 µM; hPST TC50 (H9 human ESC line; hPST cytotoxicity): 10 µM
NNC(=O)c1ccncc1 [Isoniazid]	0	0.794	0.781	3.99	3.77	3.99			Negative	>200	0	14	13.9	0	0.685	0.538	7.42	Negative	Non-Teratogen	Neg	Cell Count ACC (RUES2-GLR cells; human, 48 h): >200 µM
Nc1cccc2c1CN(C1CCC(=O)NC1=O)C2=O (stereo not shown) [Lenalidomide]	0	0.843	0.842	78.9	78.8	78.9	0.337	79.2	Positive	0.05026	1	10.3	9.38	0	0.674	0.697	44.2	Positive	Teratogen		effect on SOX17-positive cells (in words) [2]: significant reductions in the SOX17-positive sub-population; IC50 ([2]; 48 h): 0.13 µM; % Max Inhibition ([2]; 48 h exposure): 44%; Cell Count ACC (RUES2-GLR cells; Table S2, 48 h exposure): 0.1174 µM; effect on cell counts (in words) (RUES2-GLR cells): cell counts remained constant; Developmental Toxicant Classification [5]: Positive
Nc1cccc2c1C(=O)N(C1CCC(=O)NC1=O)C2=O (stereo not shown) [Pomalidomide]	0	0.865	0.894	95.9	95.3	95.9	0.0661	94	Positive	0.01911	1	8.72	7.3	0	62.1	67.4	37.2	Positive	Teratogen		effect on SOX17-positive cells (in words) [2]: significant reductions in the SOX17-positive sub-population; IC50 ([2]; 48 h): 0.05 µM; % Max Inhibition ([2]; 48 h exposure): 81%; AC50 [4]: 148 µM; Emax [4]: 88.9%; Cell Count ACC (RUES2-GLR cells; Table S2, 48 h exposure): 0.27 µM; effect on cell counts (in words) (RUES2-GLR cells): cell counts remained constant; Developmental Toxicant Classification [5]: Positive
